Reference: patent publication US9181266B2, “2-piperidin-1-yl-acetamide compounds for use as tankyrase inhibitors” (NOVARTIS AG, priority 2011, dated 2015)
Blank lines part the entries; values can stand above or below the molecule they belong to.

What was measured:
Human PARP1 = Human PARP1 (Homo sapiens (Human), UniProt P09874); test: PARP1 autoparsylation assay (LC/MS detection of nicotinamide); type: biochemical; details: 20 nM enzyme, 250 μM β-NAD+, 60 min
Experimental: (§1) The autoparsylation activity of the TNKS 1/2 or PARP1/2 enzymes was measured by the liquid chromatography-mass spectrometry (LC/MS) detection of nicotinamide as readout. Compound activity in inhibiting the TNKS and PARP autoparsylation was evaluated by IC50 measurements.

[1] = tested on: Non-small lung cancer ABC-1 cells; test: Cellular proliferation assay (CellTiter-Glo); type: cell-based; details: Homo sapiens, 72 h; ABC-1 cells, 3 days of compound treatment; read-out: ABC-1 IC50
Experimental: Cellular Proliferation Assay to Determine Compound Inhibition of Cancer Cell Growth
Viable cells were measured after 3 days of compound treatment using the CellTiter-Glo assay (Promega, G7570). Assay was performed following the manufacture protocol.

PARP2 = PARP2 (Mus musculus (Mouse), UniProt O88554); test: PARP2 autoparsylation assay (LC/MS detection of nicotinamide); type: biochemical; details: 20 nM enzyme, 250 μM β-NAD+, 60 min
Experimental: as §1

[2] = tested on: Axin2 protein in SW480 cells; test: Cellular ELISA assay of Axin2 protein stabilization; type: cell-based; details: Homo sapiens, 24 hrs, read-out: Axin AC50
Method in brief: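 SW480 colorectal cells seeded overnight, treated with compound, then lysed. Axin2 in lysates measured by sandwich ELISA: anti-Axin2 capture antibody coated at 1 μg/ml (pH 9.2), lysate 2 h at room temperature, biotinylated anti-Axin2 detection 2 h, then streptavidin-HRP 30 min.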

[3] = biological target: human tankyrase 1 PARP catalytic domain, TNKS1P (Homo sapiens (Human), UniProt O95271); test: TNKS1 autoparsylation assay (LC/MS detection of nicotinamide); details: read-out: TNKS1 AP IC50, 20 nM enzyme, 250 μM β-NAD+, 60 min
Experimental: (§2) Biochemical Assay to Determine Compound Inhibition of TNKS Enzyme Activity
(§3) The autoparsylation activity of the TNKS 1/2 or PARP1/2 enzymes was measured by the liquid chromatography-mass spectrometry (LC/MS) detection of nicotinamide as readout. Compound activity in inhibiting the TNKS and PARP autoparsylation was evaluated by IC50 measurements. […] For the background control wells, 10 μL of the 5× quenching solution per well was added prior to the addition of β-NAD^+. The % Inhibition was calculated as: (Control−Sample)/(Control−Background)*100.

[4] = biological target: tankyrase 2 protein PARP domain, TNKS2P (Homo sapiens (Human), UniProt Q9H2K2); test: TNKS2 autoparsylation assay (LC/MS detection of nicotinamide); details: read-out: TNKS2 AP IC50, 20 nM enzyme, 250 μM β-NAD+, 60 min
Experimental: as §2, §3

[5] = tested on: Wnt ligand-induced signaling in HEK293 cells; test: Wnt-responsive Super-TOpFlash (STF) luciferase reporter gene assay; type: cell-based; details: Homo sapiens, Wnt3A condition medium
Method in brief: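 HEK293 cells (8000/well, 5% FBS medium) treated with 20% mouse L-cell Wnt3A conditioned medium plus compounds in 10-point serial dilution; luciferase read next day. Inhibition calculated relative to Wnt3A-induced signal without compound and background without Wnt3A CM or compound.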

Human PARP1, sequence (P09874 whole entry): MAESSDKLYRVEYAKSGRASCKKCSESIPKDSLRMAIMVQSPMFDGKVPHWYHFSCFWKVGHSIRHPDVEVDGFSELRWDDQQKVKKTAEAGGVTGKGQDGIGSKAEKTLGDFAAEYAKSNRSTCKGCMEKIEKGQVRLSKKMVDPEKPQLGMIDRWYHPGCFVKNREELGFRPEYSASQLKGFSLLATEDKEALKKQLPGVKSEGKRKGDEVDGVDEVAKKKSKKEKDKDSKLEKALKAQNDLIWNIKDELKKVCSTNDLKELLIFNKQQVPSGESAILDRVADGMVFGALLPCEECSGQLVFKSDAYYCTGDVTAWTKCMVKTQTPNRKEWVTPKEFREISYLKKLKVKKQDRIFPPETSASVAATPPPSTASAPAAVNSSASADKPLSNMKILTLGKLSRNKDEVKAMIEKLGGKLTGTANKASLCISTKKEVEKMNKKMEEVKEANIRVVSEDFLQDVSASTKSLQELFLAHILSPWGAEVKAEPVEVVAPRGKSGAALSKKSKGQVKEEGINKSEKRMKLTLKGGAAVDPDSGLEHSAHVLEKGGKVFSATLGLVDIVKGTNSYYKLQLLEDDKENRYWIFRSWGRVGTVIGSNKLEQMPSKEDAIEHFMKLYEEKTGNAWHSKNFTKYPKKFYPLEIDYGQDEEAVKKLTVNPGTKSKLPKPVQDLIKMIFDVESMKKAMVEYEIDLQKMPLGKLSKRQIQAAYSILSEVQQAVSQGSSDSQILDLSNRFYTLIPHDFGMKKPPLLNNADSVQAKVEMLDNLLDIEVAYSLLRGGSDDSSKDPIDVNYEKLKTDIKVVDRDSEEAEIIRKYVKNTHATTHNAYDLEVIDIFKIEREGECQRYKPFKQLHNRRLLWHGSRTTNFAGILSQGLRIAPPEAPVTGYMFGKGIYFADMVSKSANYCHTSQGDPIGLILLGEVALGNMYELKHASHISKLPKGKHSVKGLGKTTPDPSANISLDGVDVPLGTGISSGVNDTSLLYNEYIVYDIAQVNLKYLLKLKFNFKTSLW
PARP2, sequence (O88554 whole entry): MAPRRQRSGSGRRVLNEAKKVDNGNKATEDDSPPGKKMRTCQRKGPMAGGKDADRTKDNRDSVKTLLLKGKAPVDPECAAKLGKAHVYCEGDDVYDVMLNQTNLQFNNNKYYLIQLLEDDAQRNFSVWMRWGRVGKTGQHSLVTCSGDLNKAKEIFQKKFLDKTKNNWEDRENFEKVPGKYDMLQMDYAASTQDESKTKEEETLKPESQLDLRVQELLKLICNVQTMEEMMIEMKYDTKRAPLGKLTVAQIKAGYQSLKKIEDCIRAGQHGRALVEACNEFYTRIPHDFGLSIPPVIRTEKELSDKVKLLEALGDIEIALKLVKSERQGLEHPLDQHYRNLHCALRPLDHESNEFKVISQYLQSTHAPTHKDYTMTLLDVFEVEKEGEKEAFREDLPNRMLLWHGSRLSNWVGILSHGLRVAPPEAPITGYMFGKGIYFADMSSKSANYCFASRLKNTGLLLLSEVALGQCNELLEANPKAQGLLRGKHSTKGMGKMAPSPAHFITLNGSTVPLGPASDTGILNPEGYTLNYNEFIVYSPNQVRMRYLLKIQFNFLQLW
human tankyrase 1 PARP catalytic domain, TNKS1P, sequence (O95271 1112-1317): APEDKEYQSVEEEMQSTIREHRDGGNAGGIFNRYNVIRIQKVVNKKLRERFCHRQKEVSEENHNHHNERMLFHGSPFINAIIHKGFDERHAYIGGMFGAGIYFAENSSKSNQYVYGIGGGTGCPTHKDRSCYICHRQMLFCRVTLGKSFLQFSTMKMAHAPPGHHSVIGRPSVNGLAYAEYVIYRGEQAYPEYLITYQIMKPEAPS
tankyrase 2 protein PARP domain, TNKS2P, sequence (Q9H2K2 959-1164): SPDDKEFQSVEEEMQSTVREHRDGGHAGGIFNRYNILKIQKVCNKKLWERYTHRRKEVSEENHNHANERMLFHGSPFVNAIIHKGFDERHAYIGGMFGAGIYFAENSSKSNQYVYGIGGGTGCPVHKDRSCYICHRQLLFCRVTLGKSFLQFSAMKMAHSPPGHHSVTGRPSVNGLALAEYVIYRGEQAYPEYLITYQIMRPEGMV

SMILES: CC(c1cccs1)N(Cc1nc2c(c(=O)[nH]1)COCC2)C(=O)CN1CCC(C(=O)c2ccc(F)cc2)CC1 (centres unmarked) [Example 49, 2-[4-(4-Fluoro-benzoyl)-piperidin-1-yl]-N-(4-oxo-3,5,7,8-tetrahydro-4H-pyrano[4,3-d]pyrimidin-2-ylmethyl)-N-(1-thiophen-2-yl-ethyl)-acetamide]
- IC50 (Human PARP1): > 19000 nM
- IC50 [1]: 170 nM
- IC50 (PARP2): > 19000 nM
- AC50 [2]: 86 ± 3 nM
- IC50 [3]: 47.5 ± 3.5 nM
- IC50 [4]: 16.5 ± 0.7 nM
- IC50 [5]: 16 ± 4 nM

SMILES: C[C@@H](C1CC1)N(Cc1nc2c(c(=O)[nH]1)COCC2)C(=O)CN1CCC(C(=O)c2ccc(F)cc2)CC1 [Example 42, (S)—N-(1-Cyclopropylethyl)-2-(4-(4-fluorobenzoyl)piperidin-1-yl)-N-((4-oxo-4,5,7,8-tetrahydro-3H-pyrano[4,3-d]pyrimidin-2-yl)methyl)acetamide]
- IC50 (Human PARP1): > 19000 nM
- IC50 [1]: 290 nM
- IC50 (PARP2): > 19000 nM
- AC50 [2]: 589 ± 60 nM
- IC50 [3]: 42 ± 3 nM
- IC50 [4]: 10 ± 1 nM
- IC50 [5]: 45.7 ± 4.9 nM

SMILES: COc1ccc(C(=O)C2CCN(CC(=O)N(Cc3nc4c(c(=O)[nH]3)COCC4)CC(F)F)CC2)cc1 [Example 50, N-(2,2-Difluoro-ethyl)-2-[4-(4-methoxy-benzoyl)-piperidin-1-yl]-N-(4-oxo-3,5,7,8-tetrahydro-4H-pyrano[4,3-d]pyrimidin-2-ylmethyl)-acetamide]
- IC50 (Human PARP1): > 19000 nM
- IC50 [1]: 45 nM
- IC50 (PARP2): > 19000 nM
- AC50 [2]: 30 ± 6 nM
- IC50 [3]: 18 ± 7 nM
- IC50 [4]: 12 ± 1 nM
- IC50 [5]: 9.5 ± 0.5 nM

SMILES: O=C(c1ccc(OC(F)(F)F)cc1)C1CCN(CC(=O)N(Cc2nc3c(c(=O)[nH]2)COCC3)CC2CC2)CC1 [Example 70, N-Cyclopropylmethyl-N-(4-oxo-3,5,7,8-tetrahydro-4H-pyrano[4,3-c]pyrimidin-2-ylmethyl)-2-[4-(4-trifluoromethoxy-benzoyl)-piperidin-1-yl]-acetamide]
- IC50 (Human PARP1): > 19000 nM
- IC50 [1]: 392 nM
- IC50 (PARP2): > 19000 nM
- AC50 [2]: 135 ± 7 nM
- IC50 [3]: 37 ± 2 nM
- IC50 [4]: 8 nM
- IC50 [5]: 8 ± 1.6 nM

SMILES: COc1cccc(CN(Cc2nc3c(c(=O)[nH]2)COCC3)C(=O)CN2CCC(C(=O)c3ccc(F)cc3)CC2)c1 [Example 18, 2-(4-(4-Fluorobenzoyl)piperidin-1-yl)-N-(3-methoxybenzyl)-N-((4-oxo-4,5,7,8-tetrahydro-3H-pyrano[4,3-d]pyrimidin-2-yl)methyl)acetamide]
- IC50 (Human PARP1): > 19000 nM
- IC50 [1]: 535 ± 7 nM
- IC50 (PARP2): > 19000 nM
- AC50 [2]: 493 ± 87 nM
- IC50 [3]: 94 ± 1 nM
- IC50 [4]: 23 nM
- IC50 [5]: 72 ± 62 nM

- IC50 (Human PARP1): 17100 ± 800 nM
- IC50 [1]: 2010 nM
- IC50 (PARP2): 4260 ± 210 nM
- IC50 [3]: 33 ± 14 nM
- IC50 [4]: 12 nM
SMILES: COc1ccc(C(=O)C2CCN(CC(=O)NCc3nc4c(c(=O)[nH]3)COCC4)CC2)cc1C [Example 93, 2-[4-(4-Methoxy-3-methyl-benzoyl)-piperidin-1-yl]-N-(4-oxo-3,5,7,8-tetrahydro-4H-pyrano[4,3-d]pyrimidin-2-ylmethyl)-acetamide]
- AC50 [2]: 1160 ± 150 nM
- IC50 [5]: 52 ± 12 nM

SMILES: CC[C@@H](C)N(Cc1nc2c(c(=O)[nH]1)COCC2)C(=O)CN1CCC(C(=O)c2ccc(F)cc2)CC1 [Example 32, (R)—N-sec-Butyl-2-(4-(4-fluorobenzoyl)piperidin-1-yl)-N-((4-oxo-4,5,7,8-tetrahydro-3H-pyrano[4,3-d]pyrimidin-2-yl)methyl)acetamide]
- IC50 (Human PARP1): > 19000 nM
- IC50 [1]: 370 nM
- IC50 (PARP2): > 19000 nM
- AC50 [2]: 910 ± 150 nM
- IC50 [3]: 43 ± 2 nM
- IC50 [4]: 13 ± 1 nM
- IC50 [5]: 49 ± 14 nM

SMILES: CC(C)N(Cc1nc2c(c(=O)[nH]1)COCC2)C(=O)CN1CCC(C(=O)c2ccc(F)cc2)CC1 [Example 33, 2-(4-(4-Fluorobenzoyl)piperidin-1-yl)-N-isopropyl-N-((4-oxo-4,5,7,8-tetrahydro-3H-pyrano[4,3-d]pyrimidin-2-yl)methyl)acetamide]
- IC50 (Human PARP1): > 19000 nM
- IC50 [1]: 690 ± 100 nM
- IC50 (PARP2): > 19000 nM
- AC50 [2]: 2800 ± 1400 nM
- IC50 [3]: 95 ± 1 nM
- IC50 [4]: 20 ± 1 nM
- IC50 [5]: 59 ± 20 nM

SMILES: COc1ccc(C(=O)C2CCN(CC(=O)NCc3nc(C)c(C)c(=O)[nH]3)CC2)cc1 [Example 12, N-((4,5-Dimethyl-6-oxo-1,6-dihydropyrimidin-2-yl)methyl)-2-(4-(4-methoxybenzoyl)piperidin-1-yl)acetamide]
- IC50 (Human PARP1): > 19000 nM
- IC50 [1]: 53 nM
- IC50 (PARP2): > 19000 nM
- AC50 [2]: 32 ± 4 nM
- IC50 [3]: 40 ± 2 nM
- IC50 [4]: 20 ± 3 nM
- IC50 [5]: 7 ± 4 nM

SMILES: O=C(c1ccc(F)cc1)C1CCN(CC(=O)N(Cc2nc3c(c(=O)[nH]2)COCC3)CC(F)(F)F)CC1 [Example 48, 2-[4-(4-Fluoro-benzoyl)-piperidin-1-yl]-N-(4-oxo-3,5,7,8-tetrahydro-4H-pyrano[4,3-d]pyrimidin-2-ylmethyl)-N-(2,2,2-trifluoro-ethyl)-acetamide]
- IC50 (Human PARP1): > 19000 nM
- IC50 [1]: 790 ± 180 nM
- IC50 (PARP2): > 19000 nM
- AC50 [2]: 610 ± 240 nM
- IC50 [3]: 55 ± 3 nM
- IC50 [4]: 14 ± 1 nM
- IC50 [5]: 14 ± 6 nM

SMILES: O=C(c1ccc(F)cc1)C1CCN(CC(=O)N(CCF)Cc2nc3c(c(=O)[nH]2)COCC3)CC1 [Example 44, 2-[4-(4-Fluoro-benzoyl)-piperidin-1-yl]-N-(2-fluoro-ethyl)-N-(4-oxo-3,5,7,8-tetrahydro-4H-pyrano[4,3-d]pyrimidin-2-ylmethyl)-acetamide]
- IC50 (Human PARP1): > 19000 nM
- IC50 [1]: 6400 nM
- IC50 (PARP2): > 19000 nM
- AC50 [2]: > 10000 nM
- IC50 [3]: 72 ± 1.4 nM
- IC50 [4]: 19 ± 1.4 nM
- IC50 [5]: 1470 ± 360 nM

SMILES: O=C(c1ccc(F)cc1)C1CCN(CC(=O)N(Cc2nc3c(c(=O)[nH]2)COCC3)Cc2ccccc2F)CC1 [Example 39, 2-(4-(4-Fluorobenzoyl)piperidin-1-yl)-N-(2-fluorobenzyl)-N-((4-oxo-4,5,7,8-tetrahydro-3H-pyrano[4,3-d]pyrimidin-2-yl)methyl)acetamide]
- IC50 (Human PARP1): > 19000 nM
- IC50 [1]: 230 ± 99 nM
- IC50 (PARP2): > 19000 nM
- AC50 [2]: 112 ± 18 nM
- IC50 [3]: 43 ± 1 nM
- IC50 [4]: 9 ± 1 nM
- IC50 [5]: 17 ± 3 nM

- IC50 (Human PARP1): 6500 ± 1700 nM
- IC50 [1]: 8120 nM
- IC50 (PARP2): > 19000 nM
- IC50 [3]: 25 ± 6 nM
- IC50 [4]: 8 ± 2.6 nM
SMILES: O=C(CN1CCC2(CC1)Cc1cc(F)ccc1C2=O)NCc1nc2c(c(=O)[nH]1)COCC2 [Example 61, 2-(5-Fluoro-1-oxo-1,3-dihydrospiro[indene-2,4′-piperidine]-1′-yl)-N-((4-oxo-4,5,7,8-tetrahydro-3H-pyrano[4,3-d]pyrimidin-2-yl)methyl)acetamide]
- IC50 [5]: 1600 ± 800 nM

SMILES: COc1cccc(C(=O)C2CCN(CC(=O)N(Cc3nc4c(c(=O)[nH]3)COCC4)CC(F)F)CC2)c1 [Example 73, N-(2,2-Difluoro-ethyl)-2-[4-(3-methoxy-benzoyl)-piperidin-1-yl]-N-(4-oxo-3,5,7,8-tetrahydro-4H-pyrano[4,3-d]pyrimidin-2-ylmethyl)-acetamide]
- IC50 (Human PARP1): > 19000 nM
- IC50 (PARP2): > 19000 nM
- AC50 [2]: > 10000 nM
- IC50 [3]: 49 ± 1 nM
- IC50 [4]: 16 ± 2 nM
- IC50 [5]: 470 ± 150 nM

- IC50 (Human PARP1): 6500 ± 1300 nM
- IC50 (PARP2): 3200 ± 1000 nM
- IC50 [3]: 27 ± 10 nM
- IC50 [4]: 9 ± 7 nM
SMILES: CCOc1ccc(C(=O)C2CCN(CC(=O)NCc3nc4c(c(=O)[nH]3)COCC4)CC2)cc1 [Example 66, 2-(4-(4-Ethoxybenzoyl)piperidin-1-yl)-N-((4-oxo-4,5,7,8-tetrahydro-3H-pyrano[4,3-d]pyrimidin-2-yl)methyl)acetamide]
- AC50 [2]: > 10000 nM
- IC50 [5]: 5690 ± 170 nM

SMILES: N#Cc1ccc(CN(Cc2nc3c(c(=O)[nH]2)COCC3)C(=O)CN2CCC(C(=O)c3ccc(F)cc3)CC2)s1 [Example 46, N-(5-Cyano-thiophen-2-ylmethyl)-2-[4-(4-fluoro-benzoyl)-piperidin-1-yl]-N-(4-oxo-3,5,7,8-tetrahydro-4H-pyrano[4,3-d]pyrimidin-2-ylmethyl)-acetamide]
- IC50 (Human PARP1): > 19000 nM
- IC50 (PARP2): > 19000 nM
- AC50 [2]: 275 ± 84 nM
- IC50 [3]: 53 ± 4 nM
- IC50 [4]: 16 ± 1.4 nM
- IC50 [5]: 36 ± 8 nM

SMILES: O=C(c1ccc(F)cc1)C1CCN(CC(=O)N(Cc2nc3c(c(=O)[nH]2)COCC3)CC2CC2)CC1 [Example 24, N-Cyclopropylmethyl-2-[4-(4-fluoro-benzoyl)-piperidin-1-yl]-N-(4-oxo-3,5,7,8-tetrahydro-4H-pyrano[4,3-d]pyrimidin-2-ylmethyl)-acetamide]
- IC50 (Human PARP1): > 19000 nM
- IC50 [1]: 276 ± 37 nM
- IC50 (PARP2): > 19000 nM
- AC50 [2]: 320 ± 180 nM
- IC50 [3]: 35 ± 10 nM

SMILES: O=C(c1ccc(F)cc1)C1CCN(CC(=O)N(Cc2nc3c(c(=O)[nH]2)COCC3)C[C@@H]2CCCO2)CC1 [Example 28, (S)-2-(4-(4-Fluorobenzoyl)piperidin-1-yl)-N-((4-oxo-4,5,7,8-tetrahydro-3H-pyrano[4,3-d]pyrimidin-2-yl)methyl)-N-((tetrahydrofuran-2-yl)methyl)acetamide]
- IC50 (Human PARP1): > 19000 nM
- IC50 (PARP2): > 19000 nM
- AC50 [2]: 101 ± 19 nM
- IC50 [3]: 24 ± 1 nM
- IC50 [4]: 10 ± 1 nM
- IC50 [5]: 15 ± 4 nM
